From ChEMBL document CHEMBL1132066, “Synthesis of alpha-C(1-->3)-mannopyranoside of N-acetylgalactosamine, a new beta-galactosidase inhibitor” (Bioorg Med Chem Lett, 1999)

Columns and labels:
[1] = test system: Beta-galactosidase (Canavalia ensiformis); assay: Compound was evaluated for the percentage inhibition of beta-galactosidase enzyme from jack bean at the concentration of 1 mM
[2] = target: Beta-galactosidase (Escherichia coli) (UniProt Q8VNN2); assay: Compound was evaluated for the percentage inhibition of beta-galactosidase enzyme from Escherichia coli at the concentration of 1 mM
[3] = target: Beta-galactosidase (Escherichia coli, UniProt Q8VNN2); assay: Concentration required to inhibit beta-galactosidase enzyme by 50% from Escherichia coli was reported
Chain of Beta-galactosidase (Q8VNN2 whole entry): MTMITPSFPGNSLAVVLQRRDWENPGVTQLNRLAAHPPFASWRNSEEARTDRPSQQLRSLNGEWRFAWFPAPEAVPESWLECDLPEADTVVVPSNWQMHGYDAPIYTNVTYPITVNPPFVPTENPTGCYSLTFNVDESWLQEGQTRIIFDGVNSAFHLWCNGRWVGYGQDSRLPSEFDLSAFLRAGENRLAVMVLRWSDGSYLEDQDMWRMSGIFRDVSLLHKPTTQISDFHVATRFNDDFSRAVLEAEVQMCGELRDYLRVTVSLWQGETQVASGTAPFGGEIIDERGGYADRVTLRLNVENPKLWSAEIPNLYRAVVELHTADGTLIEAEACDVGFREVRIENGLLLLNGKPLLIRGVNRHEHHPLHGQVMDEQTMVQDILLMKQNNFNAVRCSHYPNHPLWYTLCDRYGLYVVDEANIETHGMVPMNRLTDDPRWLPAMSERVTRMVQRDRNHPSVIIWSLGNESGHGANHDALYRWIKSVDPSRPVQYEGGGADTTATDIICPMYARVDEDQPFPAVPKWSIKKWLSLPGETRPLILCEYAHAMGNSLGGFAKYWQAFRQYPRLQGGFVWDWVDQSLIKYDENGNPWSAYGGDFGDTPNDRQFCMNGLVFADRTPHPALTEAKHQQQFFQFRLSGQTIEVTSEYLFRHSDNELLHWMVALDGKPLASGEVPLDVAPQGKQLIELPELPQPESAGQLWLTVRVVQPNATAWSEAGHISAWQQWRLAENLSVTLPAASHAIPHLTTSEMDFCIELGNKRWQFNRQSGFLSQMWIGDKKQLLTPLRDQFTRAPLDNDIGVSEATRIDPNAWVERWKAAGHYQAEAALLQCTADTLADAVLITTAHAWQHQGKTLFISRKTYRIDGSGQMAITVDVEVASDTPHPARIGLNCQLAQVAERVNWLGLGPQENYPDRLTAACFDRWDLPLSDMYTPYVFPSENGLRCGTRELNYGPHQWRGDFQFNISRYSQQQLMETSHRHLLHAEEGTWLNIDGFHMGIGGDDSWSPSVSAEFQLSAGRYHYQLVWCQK

Chain of Beta-galactosidase (Escherichia coli) (Q8VNN2 whole entry, looked up): as the sequence (Q8VNN2 whole entry) above

Work on CC(=O)N[C@@H]1C(O)O[C@H](CO)[C@H](O)[C@@H]1C[C@H]1O[C@H](CO)[C@@H](O)[C@H](O)[C@@H]1O.CC(=O)N[C@H]1C(O)O[C@H](C(O)CO)[C@@H]1C[C@H]1O[C@H](CO)[C@@H](O)[C@H](O)[C@@H]1O (stereo partly drawn) yielded an inhibition [1] of 92%, an inhibition [2] of 86% and an IC50 [3] of 500 µM.
